“And” between values parts separate entries of the source, which are not always exact repeats. Equal values may be shown once. Read-outs that look alike come from different tables or passages of the source.
Experiments:
[1] = cited from earlier work; for Log D pH 7.4: lumefantrine: ACD labs value, ref Charman et al., 2020 1
[2] = PBPK input, cited from earlier work
[3] = In vitro flags for victim and perpetrator properties conferring DDI liability; type: in vitro ADME, human; details: in vitro flag, mainly based on in vitro determinations
[4] = cited from earlier work
[5] = cited from earlier work; for CL renal: PBPK input, ref amodiaquine, DEAQ Winstanley et al., atovaquone Rolan et al., 1997 14, azithromycin Lalak et al., 1993 23, carboxyprimaquine Mihaly et al., 1987 29, DHA EMA Website, 44, mefloquine Schwartz et al., 1982 57, primaquine White, 1985 62, pyrimeth
[6] = cited from earlier work; remark: listed apart in the source
[7] = PBPK simulation of drug-drug interactions (Simcyp V19); design: species or system human; details: ratio of simulated to clinically observed AUC ratio; DDI of the respective line of Table S3
From the text: Here, we provide three example applications where the available PBPK models were used to address questions relating to DDI assessment. […] Additional simulation methods are provided in Appendix S1.
All simulations, including the ones performed for the applications, were run using Version 19 of the Simcyp population-based PBPK simulator (Simcyp (Certara), Sheffield, UK) and unless stated otherwise, input parameters for all drugs are as specified (Supplementary Information Table S1). All simulations were run using ten virtual trials that were matched as closely as possible to the clinical study volunteers in terms of the number of subjects, their age, the proportion of males/females and according to the same study design.

Caco-2 cells = details: cited from earlier work
[8] = ref Charman et al., 2020 1; cited from earlier work
[9] = Hepatic / HLM intrinsic clearance, enzyme not defined; details: human
[10] = 1987 9, 1985 26, chloroquine Walker et al., doxycycline Raghuram et al., 1982 48, Nguyen et al., 1989 49, proguanil Jeppesen et al., 1997 34
[11] = midazolam 7.5 mg QD + piperaquine 960 mg QD, ref Eurartesim - EMA Website, 12
[12] = midazolam 15 mg SD (Day 3) + azithromycin 500 mg QD (3 Days), ref Yeates et al., 1996 6
[13] = midazolam 15 mg SD (Day 3) + azithromycin 500 mg QD (3 Days), ref Zimmermann et al., 1996 7
[14] = midazolam 15 mg SD (Day 5) + azithromycin 500 mg QD (Day 1), 250 mg (Days 2-5), ref Backman et al., 1995 5

CC[C@H]1OC(=O)[C@H](C)[C@@H](O[C@H]2C[C@@](C)(OC)[C@@H](O)[C@H](C)O2)[C@H](C)[C@@H](O[C@@H]2O[C@H](C)C[C@H](N(C)C)[C@H]2O)[C@](C)(O)C[C@@H](C)CN(C)[C@H](C)[C@@H](O)[C@]1(C)O [Azithromycin, azithromycin]
Log P ([1]; ref PubChem/DrugBank): 4.02 | fu ([2]; ref atovaquone Mepron Prescribing Information, 2008, Nixon et al., 2013 13, Rolan et al., 1997 14, azithromycin Foulds et al., 1990 20, chloroquine Ofori-Adjei et al., 1986 27, Walker et al., 1983 28, DHA Batty et al., 2004 41 (healthy volunteers), lumefantrine CDER submission 22-269, proguanil Wattanagoon et al., 1987 63, tafenoquine Dow et al., 2020 84): 0.69 | Risk as a perpetrator [3]: CYP3A4 time‐dependent inhibitor | Risk as a victim [3]: Cleared by biliary excretion | AUC Obs ([4]; in vivo, 500 mg): 1.77 µg·h/mL | Cmax Obs ([4]; in vivo, 500 mg): 410 ng/mL | CL renal [5, 10]: 8.67 L/h

COc1cc(NC(C)CCC(=O)O)c2ncccc2c1 (stereo not shown) [Carboxyprimaquine, carboxyprimaquine]
AUC Obs ([4]; 15 mg QD (Day 14), 0-inf, ref Ward et al., 1985 14): 24.7 µg·h/mL | Cmax Obs ([4]; 15 mg QD (Day 14), ref Ward et al., 1985 14): 1240 ng/mL | AUC Obs ([4]; 15 mg SD, 0-24 h, ref Mihaly et al., 1985 12): 15.1 µg·h/mL | AUC Obs ([4]; 15 mg SD, 0-inf, ref Ward et al., 1985 14): 14.2 µg·h/mL | Cmax Obs ([4]; 15 mg SD, ref Ward et al., 1985 14): 736 ng/mL | AUC Obs ([4]; 30 mg SD, 0-inf, ref Hanboonkunupakarn et al., 2014 13): 44 µg·h/mL | AUC Obs ([4]; 30 mg SD, 0-inf, ref Jittamala et al., 2015 15): 47.2 µg·h/mL | Cmax Obs ([4]; 30 mg SD, ref Hanboonkunupakarn et al., 2014 13): 959 ng/mL | Cmax Obs ([4]; 30 mg SD, ref Jittamala et al., 2015 15): 1040 ng/mL | AUC Obs ([4]; 45 mg SD, 0-24 h, ref Mihaly et al., 1985 12): 39.9 µg·h/mL

C[C@H]1c2cccc(O)c2C(=O)C2=C(O)[C@]3(O)C(=O)C(C(N)=O)=C(O)[C@@H](N(C)C)[C@@H]3[C@@H](O)[C@@H]21 [Doxycycline, doxycycline]
Log D pH 7.4 [1]: -0.2 | fu ([2]; ref Charman et al., 2020 1): 0.23 | Risk as a perpetrator [3]: None identified | Risk as a victim [3]: Cleared by renal and biliary excretion | AUC Obs ([4]; 100 mg SD, 0-inf, first line, ref Malmborg, 1984 25): 40.1 µg·h/mL | AUC Obs ([4]; 100 mg SD, 0-inf, ref Grahnen et al., 1994 24): 29.9 µg·h/mL | AUC Obs ([4]; 100 mg SD, 0-inf, second line, ref Malmborg, 1984 25): 37.4 µg·h/mL | Cmax Obs ([4]; 100 mg SD, ref Grahnen et al., 1994 24): 1750 ng/mL | AUC Obs ([4]; 100 mg q24h, 312-408 h, ref Binh et al., 2009 28): 37.3 µg·h/mL | Cmax Obs ([4]; 100 mg q24h, ref Binh et al., 2009 28): 3260 ng/mL | AUC Obs ([4]; 200 mg SD, 0-inf, ref Wojcicki et al., 1985 26): 40.9 µg·h/mL | Cmax Obs ([4]; 200 mg SD, ref Wojcicki et al., 1985 26): 2610 ng/mL | AUC Obs ([4]; 200 mg q24h, malaria-infected, 0-24 h, ref Newton et al., 2005 27): 32.0 µg·h/mL | AUC Obs ([4]; 200 mg q24h, malaria-infected, 144-168 h, ref Newton et al., 2005 27): 48.6 µg·h/mL | Cmax Obs ([4]; 200 mg q24h, malaria-infected, window 0-24 h, ref Newton et al., 2005 27): 3170 ng/mL | Cmax Obs ([4]; 200 mg q24h, malaria-infected, window 144-168 h, ref Newton et al., 2005 27): 4440 ng/mL | CL renal [5, 10]: 0.87 L/h | CL IV ([5]; clinically observed, ref atovaquone Lavelle et al., 1994 17, chloroquine Walker et al., 1987 29, Gustafsson et al., 1983 30, doxycycline Raghuram et al., 1982 48, Nguyen et al., 1989 49, primaquine Mihaly et al., 1985 26, quinine White et al., 1983 77, Paintaud et al., 1993 78): 2.77 L/h

Cc1ncc2n1-c1ccc(Cl)cc1C(c1ccccc1F)=NC2 [Midazolam, midazolam]
AUC ratio Obs [6, 11]: ≤ 2 fold | Cmax ratio Obs [6, 11]: ≤ 2 fold | AUC ratio Obs [6, 12]: 1.19 | Cmax ratio Obs [6, 12]: 1.52 | AUC ratio Obs [6, 13]: 1.27 | Cmax ratio Obs [6, 13]: 1.29 | AUC ratio Obs [6, 14]: 0.87 | Cmax ratio Obs [6, 14]: 0.66 | AUC ratios Sim/Obs [7]: 0.91 and 0.83 and 1.22

CC(C)NCC(O)COc1cccc2ccccc12 (stereo not shown) [Propranolol, propranolol]
Papp A-B of calibrator (Caco-2 cells; Caco-2): 72 10-6 cm/s

C=C[C@H]1C[N@@]2CC[C@H]1C[C@H]2[C@H](O)c1ccnc2ccc(OC)cc12 [Quinine, quinine]
Risk as a perpetrator [3]: CYP2D6 inhibitor | Risk as a victim [3]: Substrate of CYP3A4 | B:P [8]: 0.67 | AUC Obs ([4]; in vivo, 550 mg): 50.89 µg·h/mL | Cmax Obs ([4]; in vivo, 550 mg): 2848 ng/mL

COc1ncnc(NS(=O)(=O)c2ccc(N)cc2)c1OC [Sulfadoxine, sulfadoxine]
Log D pH 7.4 [1]: -0.78 | fu ([2]; ref Charman et al., 2020 1): 0.036 | Risk as a perpetrator [3]: None identified | Risk as a victim [3]: Renally cleared | Caco-2 (Papp A-B) (Caco-2 cells; calibrated against propranolol, plasma as medium for atovaquone and piperaquine, ref Charman et al., 2020 1): 15 10-6 cm/s | AUC Obs ([4]; 500 mg SD, Caucasian, 0-inf, ref Weidekamm et al., 1982 35): 14168 µg·h/mL | Cmax Obs ([4]; 500 mg SD, Caucasian, ref Weidekamm et al., 1982 35): 63200 ng/mL | AUC Obs ([4]; 500 mg SD, South-East Asian, 0-inf, ref Sarikabhuti et al., 1988 44): 26689 µg·h/mL | Cmax Obs ([4]; 500 mg SD, South-East Asian, ref Sarikabhuti et al., 1988 44): 77000 ng/mL | AUC Obs ([4]; 500 mg weekly (20 weeks), 3360-3528 h, ref Schwartz et al., 1987 32): 12465 µg·h/mL | Cmax Obs ([4]; 500 mg weekly (20 weeks), ref Schwartz et al., 1987 32): 121000 ng/mL | AUC Obs ([4]; 1500 mg SD, 0-inf, ref Karunajeewa et al., 2009 43): 33284 µg·h/mL | Cmax Obs ([4]; 1500 mg SD, ref Karunajeewa et al., 2009 43): 142000 ng/mL | fm additional / undefined metabolism [9]: 10% | CL renal [5, 10]: 0.035 L/h | CL PO ([5]; clinically observed oral (in vivo) clearance, pyronaridine: blood, ref amodiaquine Winstanley et al., 1987 9, DEAQ Akande et al., 2015 8, Scarsi et al., 2014 35, Tarning et al., 2012 36, Orrell et al., 2008 37, DHA Na-Bangchang et al., 2004 42, lumefantrine Lefevre et al., 2002 52, Hoglund et al., 2015 53, mefloquine Charles et al., 2007 56, proguanil Jeppesen et al., 1997 34, pyronaridine Jittama): 0.039 L/h | fe (fraction excreted unchanged in urine) ([5]; in vivo): 90%

Source: publication PMC10508484, “Development and application of a PBPK modeling strategy to support antimalarial drug development” (CPT: Pharmacometrics & Systems Pharmacology, 2023)
